In patent EP0603240B1, “SAFENING HERBICIDAL PYRAZOLYLSULFONYLUREAS” (priority 1991, dated 1993):

Assays:
[1] = test system: corn; experiment: Example 12, Procedure II: Herbicide No. 1 + acetochlor (No. 6) with thirteen antidotes; type: in vivo
In short: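 Herbicide and antidote in acetone were mixed into silt loam used to cover the corn seed bed, alongside untreated and herbicide-only controls. After incorporation, an overhead irrigation equal to 0.6 cm rainfall was given, then sub-irrigation in a greenhouse. Injury was scored as percent; safening is the injury difference without versus with antidote.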

[2] = test system: corn; experiment: Example 5, Procedure I: Herbicide No. 1 + alachlor (No. 7) with Antidote Nos. 15 and 16; type: in vivo
In short: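 Greenhouse pot test in silt loam; herbicide No. 1 plus alachlor co-herbicide and antidote, each applied in acetone, mixed into cover soil over seeded beds, sub-irrigated. Percent injury scored; antidote efficacy as injury difference without vs with antidote.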

[3] = test system: corn; experiment: Example 4, Procedure I: Antidote Nos. 15 and 16 against Herbicide No. 1; type: in vivo
Procedure: (§1) Containers were filled and compacted with a fumigated silt loam top soil to a depth of about 1.3 cm from the top of the container. A first container was designated as an untreated control, a second container was designated as a herbicide control, and a third container was designated as a herbicide + antidote test container. Each of the containers was seeded with a crop species. A measured amount of herbicide dispersed or dissolved in acetone was applied to a measured quantity of soil. To this same quantity of soil treated with herbicide, there was added a measured amount of antidote dispersed or dissolved in acetone. The quantity of soil treated with the herbicide and antidote was thoroughly mixed to incorporate the herbicide and antidote in the soil uniformly. The seed bed in the third container of soil was covered with the soil treated with the herbicide and antidote and the container was leveled. For each test series, the seed beds of the first and second containers were likewise covered by soil layers. the cover layer of the first container was not treated with herbicide or antidote.
(§2) The containers were then placed on a bench in a greenhouse and sub-irrigated as required for the duration of the test. […] Plant response is measured in terms of percent injury. Antidote efficacy is indicated as the difference in plant injury by the herbicide(s) without the antidote and with the antidote.
This example describes tests with Antidote Nos. 15 and 16 to safen Herbicide No. 1 according to Procedure I using corn and the weeds barnyardgrass and velvetleaf as the test plants.

[4] = test system: corn; experiment: Example 2, Procedure II: dichloroacetamide antidotes against Herbicide No. 1; type: in vivo
Procedure: as §1, §2
(§3) This procedure is the same as Procedure I, but modified in the manner that after incorporation of the chemicals (herbicide and antidote) the containers with the covered seedbed were treated with an initial overhead irrigation equivalent to 0.6 cm rainfall, then subsequently sub-irrigated as required on greenhouse benches.
In this example, a plurality of dichloroacetamide antidotes were tested for their safening efficacy against Herbicide No. 1 in corn, using Procedure II. In this test the weed was velvetleaf; barnyardgrass was not present in this test.

[5] = test system: corn; experiment: Example 13, Procedure II: Herbicide No. 1 + acetochlor (No. 6) with dichloroacetamide antidotes; type: in vivo
In short: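 Corn seeded in silt loam, covered with soil into which herbicide No. 1 plus acetochlor and dichloroacetamide antidote (acetone) were incorporated, velvetleaf present. Initial overhead irrigation equivalent to 0.6 cm rainfall, then greenhouse sub-irrigation. Percent injury scored; safening taken as injury difference without versus with antidote.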

[6] = test system: corn; experiment: Example 15, Procedure II: Herbicide No. 1 + butylate (No. 10) with antidotes; type: in vivo
Procedure: as §1, §2, §3
This example describes experiments designed to investigate the antidotal efficacy of a plurality of antidotes against the herbicidal action of a combination of Herbicide No. 1 and butylate in corn and the prevalent weeds barnyardgrass and velvetleaf. The antidotes used in these experiments were Nos. 1-10, 12, 13 and 15.
The test procedure used in these experiments was that of Procedure II described above. The antidotes were applied to a soil cover layer by pipet after spraying the herbicides onto the soil, followed by incorporation and overhead irrigation.

[7] = test system: barnyardgrass (Echinochloa crusgalli); experiment: Example 9, Procedure II: Herbicide No. 1 + pretilachlor (No. 13) with antidotes; type: in vivo
Procedure: as §1, §2, §3
(§4) In the series of greenhouse tests described below, for routine screening purposes the herbicide/antidote compositions were tested in crop/weed combinations involving corn as the crop and either or both of the weeds barnyardgrass (Echinochloa crusgalli), a monocotyledonous weed, and velvetleaf (Abutilon theophrasti), a dicotyledonous weed. In the tables below, these weeds are indicated by the symbols "BYG" and "VL", respectively.
(§5) In this example the safening effect on a composition comprising Herbicide No. 1 and another leading rice herbicide, i.e., Herbicide No. 13, was investigated using the same antidotes and test procedure described in the preceding example. Herbicide No. 13 is pretilachlor, active ingredient used in the commercial rice herbicides RIFIT®, SOFIT® and SOFIT® SUPER.

[8] = test system: velvetleaf (Abutilon theophrasti); experiment: as above; type: in vivo
Procedure: as §1, §2, §3, §4, §5

[9] = test system: corn; experiment: Example 25, greenhouse preemergence test: Antidote Nos. 1 and 2 against Herbicide Nos. 1-3; type: in vivo, Corn (Pioneer 3424 variety); conditions: Zea mays, pre-emergence, Preemergence, no antidote
In short: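 Greenhouse preemergence application; herbicides as wettable powders, dichlormid as emulsifiable concentrate, naphthalic anhydride as conventional seed coating on corn before planting. Rates in g active ingredient/ha; naphthalic anhydride amount not quantified. Corn injury scored as percent growth inhibition.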

[10] = Herbicide No.1 0.14 kg/ha + Herbicide No.13 2.24 kg/ha, antidote rate 2.24 kg/ha
[11] = Herbicide No.1 0.14 kg/ha + Herbicide No.13 2.24 kg/ha, antidote rate 8.96 kg/ha
[12] = Herbicide No.1 0.56 kg/ha + Herbicide No.13 2.24 kg/ha, antidote rate 2.24 kg/ha
[13] = Herbicide No.1 0.56 kg/ha + Herbicide No.13 2.24 kg/ha, antidote rate 8.96 kg/ha
[14] = Herbicide No.1 0.14 kg/ha alone, no antidote
[15] = Herbicide No.1 0.56 kg/ha alone, no antidote

CC1(C)OC(c2ccco2)CN1C(=O)C(Cl)Cl (centres unmarked) [compound 15]
% Injury Corn ([1]; Herbicide No.1 0.14 kg/ha + Herbicide No.6 2.24 kg/ha, antidote rate 2.24 kg/ha): 15% | % Injury Corn ([1]; Herbicide No.1 0.14 kg/ha + Herbicide No.6 2.24 kg/ha, antidote rate 8.96 kg/ha): 10% | % Injury Corn ([1]; Herbicide No.1 0.56 kg/ha + Herbicide No.6 2.24 kg/ha, antidote rate 2.24 kg/ha): 20% | % Injury Corn ([1]; Herbicide No.1 0.56 kg/ha + Herbicide No.6 2.24 kg/ha, antidote rate 8.96 kg/ha): 5% | % Injury Corn ([2]; Herbicide No.1 4.48 + No.7 0.56 kg/ha + antidote 0.56 kg/ha): 23% | % Injury Corn ([2]; Herbicide No.1 4.48 + No.7 0.56 kg/ha + antidote 2.24 kg/ha): 40% | % Injury Corn ([2]; Herbicide No.1 4.48 + No.7 2.24 kg/ha + antidote 0.56 kg/ha): 30% | % Injury Corn ([2]; Herbicide No.1 4.48 + No.7 2.24 kg/ha + antidote 2.24 kg/ha): 23% | % Injury Corn ([2]; Herbicide No.1 6.72 + No.7 0.56 kg/ha + antidote 0.56 kg/ha): 25% | % Injury Corn ([2]; Herbicide No.1 6.72 + No.7 0.56 kg/ha + antidote 2.24 kg/ha): 25% | % Injury Corn ([2]; Herbicide No.1 6.72 + No.7 2.24 kg/ha + antidote 0.56 kg/ha): 45% | % Injury Corn ([2]; Herbicide No.1 6.72 + No.7 2.24 kg/ha + antidote 2.24 kg/ha): 50% | % Injury Corn ([3]; Herb. No. 1 6.72 kg/ha + antidote 0.56 kg/ha): 35% | % Injury Corn ([3]; Herb. No. 1 6.72 kg/ha + antidote 2.24 kg/ha): 50% | % Injury Corn ([4]; Herb. No. 1 0.14 kg/ha + antidote 0.56 kg/ha): 5% | % Injury Corn ([5]; Herbicide No.1 0.56 kg/ha + Herbicide No.6 4.48 kg/ha, antidote rate 0.56 kg/ha): 5% | % Injury Corn ([5]; Herbicide No.1 0.56 kg/ha + Herbicide No.6 4.48 kg/ha, antidote rate 2.24 kg/ha): 15% | % Injury Corn ([5]; Herbicide No.6 4.48 kg/ha, no Herbicide No.1, antidote rate 0.56 kg/ha): 5% | % Injury Corn ([5]; Herbicide No.6 4.48 kg/ha, no Herbicide No.1, antidote rate 2.24 kg/ha): 15% | % Injury Corn ([6]; Herbicide No.1 0.56 kg/ha + Herbicide No.10 6.72 kg/ha, antidote rate 2.24 kg/ha): 20% | % Injury Corn ([6]; Herbicide No.1 0.56 kg/ha + Herbicide No.10 6.72 kg/ha, antidote rate 8.96 kg/ha): 10% | % Injury Corn ([6]; Herbicide No.1 1.12 kg/ha + Herbicide No.10 6.72 kg/ha, antidote rate 2.24 kg/ha): 15% | % Injury Corn ([6]; Herbicide No.1 1.12 kg/ha + Herbicide No.10 6.72 kg/ha, antidote rate 8.96 kg/ha): 15% | % Injury BYG [7, 10]: 100% | % Injury BYG [7, 11]: 100% | % Injury BYG [7, 12]: 99% | % Injury BYG [7, 13]: 100% | % Injury VL [8, 10]: 60% | % Injury VL [8, 11]: 90% | % Injury VL [8, 12]: 85% | % Injury VL [8, 13]: 75%

COC(=O)c1c(Cl)nn(C)c1S(=O)(=O)NC(=O)Nc1nc(OC)cc(OC)n1 [Herbicide No. 1]
combined corn injury ([1]; Herbicide No. 1 0.56 kg/ha + Herbicide No. 6 2.24 kg/ha, without an antidote): 45% | injury to corn ([1]; Herbicide No. 1 0.56 kg/ha, without an antidote): 20% | % Injury Corn [1, 14]: 15% | % Injury Corn [1, 15]: 20% | % Injury Corn ([2]; Herbicide No.1 4.48 + No.7 0.56 kg/ha, no antidote): 95% | % Injury Corn ([2]; Herbicide No.1 4.48 + No.7 2.24 kg/ha, no antidote): 95% | % Injury Corn ([2]; Herbicide No.1 6.72 + No.7 0.56 kg/ha, no antidote): 93% | % Injury Corn ([2]; Herbicide No.1 6.72 + No.7 (alachlor) 2.24 kg/ha, no antidote): 95% | % Injury Corn ([3]; Herb. No. 1 4.48 kg/ha, no antidote, average of two replicates): 85% | % Injury Corn ([3]; Herb. No. 1 6.72 kg/ha, no antidote, average of two replicates): 90% | inhibition at 0.25 g/ha ([9]; herbicide alone 0.25 G/ha, read-out: % Inhibition Corn): 22.3% | inhibition at 0.74 g/ha ([9]; herbicide alone 0.74 G/ha): 32.3% | inhibition at 2.5 g/ha ([9]; herbicide alone 2.5 G/ha): 49.9% | % Injury Corn ([4]; Herb. No. 1 0.14 kg/ha, no antidote): 10% | % Injury Corn [5, 14]: 10% | % Injury Corn [5, 15]: 55% | % Injury Corn ([5]; Herbicide No.1 2.24 kg/ha alone, no antidote): 80% | % Injury Corn [6, 15]: 20% | % Injury Corn ([6]; Herbicide No.1 1.12 kg/ha alone, no antidote): 20%
